Measured values reported in ChEMBL document CHEMBL1201862, “PubChem BioAssay data set” (2004).
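Five compound concentrations were applied to cells in 96-well plates for 48 hours; endpoints were derived by simple linear interpolation of the resulting dose-response curve. The concentration for 50% growth inhibition is given as GI50.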 Activity calls are given as the source filed them. Rule as the data show it: active = GI50 up to about 1.1 µM and inactive = higher.

Legend:
Experiment in all cases: growth of human tumour cells (NCI), 48 h
DU-145 = system: DU-145
NCI-H522 = system: NCI-H522
SK-MEL-5 = system: SK-MEL-5
SNB-75 = system: SNB-75
SK-OV-3 = system: SK-OV-3
OVCAR-3 = system: OVCAR-3
Hs-578T = system: Hs-578T
CCRF-CEM = system: CCRF-CEM
NCI-H23 = system: NCI-H23
SW-620 = system: SW-620
OVCAR-4 = system: OVCAR-4
UO-31 = system: UO-31
Malme-3M = system: Malme-3M
TK-10 = system: TK-10
SF-539 = system: SF-539
EKVX = system: EKVX
SK-MEL-2 = system: SK-MEL-2
HOP-62 = system: HOP-62
NCI/ADR-RES = system: NCI/ADR-RES
OVCAR-8 = system: OVCAR-8

SMILES	GI50 (DU-145)	GI50 (NCI-H522)	GI50 (SK-MEL-5)	GI50 (SNB-75)	GI50 (SK-OV-3)	GI50 (OVCAR-3)	GI50 (Hs-578T)	GI50 (CCRF-CEM)	GI50 (NCI-H23)	GI50 (SW-620)	GI50 (OVCAR-4)	GI50 (UO-31)	GI50 (Malme-3M)	GI50 (TK-10)	GI50 (SF-539)	GI50 (EKVX)	GI50 (SK-MEL-2)	GI50 (HOP-62)	GI50 (NCI/ADR-RES)	GI50 (OVCAR-8)
CCOC(=O)C1=C(Cl)c2cccnc2C1=O	21.5 µM (inactive)	86.5 µM (inactive)	53.6 µM (inactive)	13 µM (inactive)	> 100 µM (inactive)	19.8 µM (inactive)	27.7 µM (inactive)	26.4 µM (inactive)	16.4 µM (inactive)	30.3 µM (inactive)	> 100 µM (inactive)	> 100 µM (inactive)	31.3 µM (inactive)	> 100 µM (inactive)	82.6 µM (inactive)	62.5 µM (inactive)	> 100 µM (inactive)	32.2 µM (inactive)	> 100 µM (inactive)	
Cc1ccc(C(C)C)c(OCC(=O)N/N=C/c2c[nH]c3ccc(Br)cc23)c1	2.56 µM (inactive)	1.43 µM (inactive)	1.38 µM (inactive)	2.13 µM (inactive)	2.58 µM (inactive)	2.19 µM (inactive)	4.82 µM (inactive)	2.11 µM (inactive)	0.451 µM (active)	3.61 µM (inactive)	3 µM (inactive)	3.49 µM (inactive)	6.3 µM (inactive)	2.4 µM (inactive)	1.72 µM (inactive)	2.86 µM (inactive)	2.44 µM (inactive)	5.79 µM (inactive)	1.57 µM (inactive)	3.95 µM (inactive)
C=CCn1c(N)c(C#N)c(C#N)c1CCC	> 100 µM (inactive)	> 100 µM (inactive)	> 100 µM (inactive)	25 µM (inactive)	> 100 µM (inactive)	74.6 µM (inactive)	> 100 µM (inactive)	> 100 µM (inactive)	> 100 µM (inactive)	> 100 µM (inactive)	> 100 µM (inactive)	> 100 µM (inactive)	> 100 µM (inactive)	> 100 µM (inactive)	> 100 µM (inactive)	42.7 µM (inactive)	> 100 µM (inactive)	> 100 µM (inactive)	> 100 µM (inactive)	> 100 µM (inactive)
CC1CNC(c2ccc(-c3nc(-c4ccc(C5=NC(C)CN5)cc4)nc(N(C)C)n3)cc2)=N1 (stereo not drawn)	1.78 µM (inactive)	1.24 µM (inactive)	3.8 µM (inactive)	1.82 µM (inactive)	1.91 µM (inactive)	1.79 µM (inactive)	3.21 µM (inactive)	0.685 µM (active)	2.39 µM (inactive)	1.17 µM (inactive)	1.55 µM (inactive)	7.33 µM (inactive)	3.08 µM (inactive)	3.78 µM (inactive)	0.855 µM (active)	2.54 µM (inactive)	2.01 µM (inactive)	1.47 µM (inactive)	22 µM (inactive)	2.12 µM (inactive)
N#Cc1c2ccc([N+](=O)[O-])cc2c(=O)n2c1[nH]c1ccc(C(F)(F)F)cc12	44.4 µM (inactive)	7.28 µM (inactive)	29.4 µM (inactive)	27.3 µM (inactive)	41.9 µM (inactive)	18.2 µM (inactive)	24.4 µM (inactive)	1.35 µM (inactive)	20.1 µM (inactive)	14.4 µM (inactive)	24.8 µM (inactive)	17.5 µM (inactive)	41 µM (inactive)	99.5 µM (inactive)	> 100 µM (inactive)	> 100 µM (inactive)	> 64.7 µM (inactive)	26.9 µM (inactive)	23.2 µM (inactive)	33.1 µM (inactive)
Cc1ccc(/N=N/c2c(O)c3ccccc3[nH]c2=O)c(S(=O)(=O)N(C)C)c1	> 100 µM (inactive)	> 100 µM (inactive)	> 100 µM (inactive)	> 100 µM (inactive)	> 100 µM (inactive)	> 100 µM (inactive)	> 100 µM (inactive)	> 100 µM (inactive)	> 100 µM (inactive)	> 100 µM (inactive)	> 100 µM (inactive)	> 100 µM (inactive)	> 100 µM (inactive)	> 100 µM (inactive)	> 100 µM (inactive)	> 100 µM (inactive)	> 100 µM (inactive)	> 100 µM (inactive)	> 100 µM (inactive)	> 100 µM (inactive)
CC1(C)N=c2c(ncn2-c2ccccc2)=C(C(N)=O)N1	> 100 µM (inactive)	> 100 µM (inactive)	> 100 µM (inactive)	> 100 µM (inactive)	> 100 µM (inactive)	> 100 µM (inactive)	> 100 µM (inactive)	> 100 µM (inactive)	> 100 µM (inactive)	> 100 µM (inactive)	> 100 µM (inactive)		> 100 µM (inactive)	> 100 µM (inactive)	> 100 µM (inactive)	> 100 µM (inactive)	> 100 µM (inactive)	> 100 µM (inactive)	> 100 µM (inactive)	> 100 µM (inactive)
